Measured values reported in PubChem BioAssay (NCI).
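A five-concentration, 48-hour dose response in 96-well plates underlies each endpoint, interpolated linearly between surrounding concentrations. TGI is the concentration that stops growth completely.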

Assays:
Assay in all cases: NCI anticancer screen, dose series, 48 h
[1] = system: SK-MEL-28 melanoma
[2] = system: M14 melanoma
[3] = system: HOP-92 NSCLC
[4] = system: OVCAR-5 ovarian
[5] = system: A498 renal
[6] = system: HT29 colon
[7] = system: KM12 colon
[8] = system: SW-620 colon
[9] = system: PC-3 prostate
[10] = system: OVCAR-4 ovarian
[11] = system: HCT-15 colon
[12] = system: DU-145 prostate
[13] = system: MDA-MB-231 breast
[14] = system: A549 NSCLC
[15] = system: ACHN renal
[16] = system: SF-268 CNS
[17] = system: RPMI-8226 leukemia
[18] = system: RXF 393 renal
[19] = system: SK-MEL-2 melanoma
[20] = system: NCI-H23 lung
[21] = system: K-562 leukemia
[22] = system: SF-295 CNS
[23] = system: NCI/ADR-RES ovarian
[24] = system: IGROV1 ovarian
[25] = system: NCI-H522 lung
[26] = system: HS 578T breast
[27] = system: HCT-116 colon
[28] = system: HL-60(TB) leukemia
[29] = system: NCI-H226 lung
[30] = system: SF-539 CNS
[31] = system: MDA-N
[32] = system: EKVX NSCLC
[33] = system: OVCAR-3 ovarian
[34] = system: U251 CNS
[35] = system: MCF7 breast
[36] = system: CAKI-1 renal
[37] = system: SNB-75 CNS
[38] = system: NCI-H460 lung
[39] = system: UACC-257 melanoma
[40] = system: MDA-MB-435
[41] = system: MALME-3M melanoma
[42] = system: UACC-62 melanoma
[43] = system: 786-0 renal
[44] = system: BT-549 breast
[45] = system: OVCAR-8 ovarian
[46] = system: UO-31 renal
[47] = system: T-47D breast
[48] = system: MOLT-4 leukemia
[49] = system: SN12C renal
[50] = system: CCRF-CEM leukemia
[51] = system: SK-MEL-5 melanoma
[52] = system: SNB-19 CNS
[53] = system: LOX IMVI melanoma
[54] = system: HCC-2998 colon
[55] = system: SK-OV-3 ovarian
[56] = system: SR leukemia
[57] = system: TK-10 renal
[58] = system: COLO 205 colon
[59] = system: HOP-62 NSCLC

`CCOC(=O)C1(C#N)C(=O)c2cc[n+](CC[n+]3ccc4c(c3)C(=O)C(C#N)(C(=O)OCC)C4=O)cc2C1=O` (stereo unspecified) gave a TGI [1] greater than 100 µM, a TGI [2] greater than 100 µM and a TGI [3] greater than 100 µM. The TGI [4] was greater than 100 µM, the TGI [5] was greater than 100 µM and the TGI [6] was greater than 100 µM. The TGI [7] was greater than 100 µM, the TGI [8] was greater than 100 µM and the TGI [9] was greater than 100 µM. It also gave a TGI [10] greater than 100 µM, a TGI [11] greater than 100 µM and a TGI [12] greater than 100 µM. It also gave a TGI [13] greater than 100 µM, a TGI [14] greater than 100 µM and a TGI [15] greater than 100 µM. For the same compound, the TGI [16] was greater than 100 µM, the TGI [17] was greater than 100 µM and the TGI [18] was greater than 100 µM. It also gave a TGI [19] greater than 100 µM, a TGI [20] greater than 100 µM and a TGI [21] greater than 100 µM. The TGI [22] was greater than 100 µM, the TGI [23] was greater than 100 µM and the TGI [24] was greater than 100 µM. It also gave a TGI [25] greater than 100 µM, a TGI [26] greater than 100 µM and a TGI [27] greater than 100 µM. The TGI [28] was greater than 100 µM, the TGI [29] was greater than 100 µM and the TGI [30] was greater than 100 µM. It also gave a TGI [31] greater than 100 µM, a TGI [32] greater than 100 µM and a TGI [33] greater than 100 µM. The TGI [34] was greater than 100 µM, the TGI [35] was greater than 100 µM and the TGI [36] was greater than 100 µM. It also gave a TGI [37] greater than 100 µM, a TGI [38] greater than 100 µM and a TGI [39] greater than 100 µM. The TGI [40] was greater than 100 µM, the TGI [41] was greater than 100 µM and the TGI [42] was greater than 100 µM. The TGI [43] was greater than 100 µM, the TGI [44] was greater than 100 µM and the TGI [45] was greater than 100 µM. It also gave a TGI [46] greater than 100 µM, a TGI [47] greater than 100 µM and a TGI [48] greater than 100 µM. It also gave a TGI [49] greater than 100 µM, a TGI [50] greater than 100 µM and a TGI [51] of 38.5 µM. For the same compound, the TGI [52] was greater than 100 µM, the TGI [53] was greater than 100 µM and the TGI [54] was greater than 100 µM. It also gave a TGI [55] greater than 100 µM.
`CCC1(CC)C(=O)N(C(=O)c2ccccc2)N(C(=O)c2ccc(Cl)cc2)C1=O` showed a TGI [1] greater than 75 µM, a TGI [2] greater than 75 µM and a TGI [4] greater than 75 µM. It also gave a TGI [6] greater than 75 µM, a TGI [7] greater than 75 µM and a TGI [8] greater than 75 µM. The TGI [9] was greater than 75 µM, the TGI [10] was greater than 75 µM and the TGI [11] was greater than 75 µM. For the same compound, the TGI [12] was greater than 75 µM, the TGI [56] was 53.6 µM and the TGI [13] was greater than 75 µM. It also gave a TGI [14] greater than 75 µM, a TGI [15] greater than 75 µM and a TGI [16] greater than 75 µM. It also gave a TGI [17] greater than 75 µM, a TGI [18] greater than 75 µM and a TGI [57] greater than 75 µM. The TGI [19] was greater than 75 µM, the TGI [20] was greater than 75 µM and the TGI [21] was greater than 75 µM. The TGI [22] was greater than 75 µM, the TGI [23] was greater than 75 µM and the TGI [24] was greater than 75 µM. For the same compound, the TGI [25] was greater than 75 µM, the TGI [26] was greater than 75 µM and the TGI [27] was greater than 75 µM. The TGI [28] was greater than 75 µM, the TGI [29] was greater than 75 µM and the TGI [31] was greater than 75 µM. The TGI [32] was greater than 75 µM, the TGI [33] was greater than 75 µM and the TGI [34] was greater than 75 µM. The TGI [35] was greater than 75 µM, the TGI [36] was greater than 75 µM and the TGI [37] was greater than 75 µM. It also gave a TGI [38] greater than 75 µM, a TGI [58] greater than 75 µM and a TGI [39] greater than 75 µM. For the same compound, the TGI [40] was greater than 75 µM, the TGI [41] was greater than 75 µM and the TGI [59] was greater than 75 µM. For the same compound, the TGI [42] was greater than 75 µM, the TGI [43] was greater than 75 µM and the TGI [44] was greater than 75 µM. For the same compound, the TGI [45] was greater than 75 µM, the TGI [46] was greater than 75 µM and the TGI [47] was greater than 75 µM. The TGI [48] was 47.7 µM, the TGI [49] was greater than 75 µM and the TGI [50] was 51.3 µM. The TGI [51] was greater than 75 µM, the TGI [52] was greater than 75 µM and the TGI [53] was greater than 75 µM. It also gave a TGI [54] greater than 75 µM and a TGI [55] greater than 75 µM.
